Test system: corneal endothelium
Assay: Histological analysis of the corneal endothelium after instillation
Assay type: in vivo
Source text: Rabbits were euthanized, and then their eyes were removed and histologically analyzed. Expression of markers related to corneal endothelial functions was confirmed by immunostaining. The sclerocornea fragments were fixed with 0.5% paraformaldehyde and then blocked with 1% bovine serum albumin. As primary antibodies, ZO-1 antibody (Life Technologies) and N-cadherin antibody (BD Biosciences), which are indicators of the barrier function of corneal endothelial cells, and Na^+/K^+-ATPase antibody (MILLIPORE), which is an indicator of pump functions, were added, followed by standing at 4° C. overnight. […] Further, nuclear staining was performed using DAPI (Dojindo). To observe the cell morphology, actin was stained using Phalloidin (Life Technologies). The stained sclerocornea fragments were mounted in slide glasses and observed using a confocal fluorescence microscope (TCS SPE, Leica).
In addition, rabbits were euthanized, and then their eyes were removed. To assess cell death, the sclerocornea fragments were stained with Annexin V (Zymed Laboratories) and PI (Zymed Laboratories), fixed with 0.5% paraformaldehyde, and nuclear stained with DAPI (Dojindo). The stained sclerocornea fragments were mounted in slide glass and observed using a confocal fluorescence microscope (TCS SPE, Leica). Staurosporine (10 μM, Merck Millipore) was administered into the anterior chamber of a rabbit eyeball, and after 24 hours, it was used as a positive control.

O=C(Cc1c(F)cccc1Cl)Nc1onc(-c2ccc(F)cc2)c1-c1ccncn1 [AKP-001, 5-[(2-chloro-6-fluorophenyl)acetylamino]-3-(4-fluorophenyl)-4-(4-pyrimidinyl)isoxazole]
N-cadherin immunostaining (eyeball instilled 10 times): Expression along the cell membrane | Na+/K+-ATPase immunostaining (eyeball instilled 10 times): Expression along the cell membrane | ZO-1 immunostaining (eyeball instilled 10 times): Expression along the cell membrane | actin staining, form of the corneal endothelium (eyeball instilled 10 times): polygonal paving stones | Annexin V and PI staining (cell death) (rabbit, in vivo): Neither staining with Annexin V nor PI was observed

From US11576914B2, “Drug for treating or preventing disorder caused by TGF-β signaling, and application thereof” (THE DOSHISHA, priority 2017, dated 2023)
